Test results published in patent US20240150377A1, “MODULATORS OF CYSTIC FIBROSIS TRANSMEMBRANE CONDUCTANCE REGULATOR” (VERTEX PHARMACEUTICALS INCORPORATED, priority 2020, published 2024).
pEC50: −log10 of the molar value. Read-outs that look alike come from different tables or passages of the source. One block for each molecule: values may come before it.

Target: T1, CFTR (Homo sapiens, UniProt P13569, DEL508-508)
T1 construct: endogenous in cells; host or cells: primary human bronchial epithelial cells from CF subjects (F508del/MF-HBE), differentiated at air-liquid interface
T1 sequence (P13569 with tags, fused parts or gaps DEL508-508): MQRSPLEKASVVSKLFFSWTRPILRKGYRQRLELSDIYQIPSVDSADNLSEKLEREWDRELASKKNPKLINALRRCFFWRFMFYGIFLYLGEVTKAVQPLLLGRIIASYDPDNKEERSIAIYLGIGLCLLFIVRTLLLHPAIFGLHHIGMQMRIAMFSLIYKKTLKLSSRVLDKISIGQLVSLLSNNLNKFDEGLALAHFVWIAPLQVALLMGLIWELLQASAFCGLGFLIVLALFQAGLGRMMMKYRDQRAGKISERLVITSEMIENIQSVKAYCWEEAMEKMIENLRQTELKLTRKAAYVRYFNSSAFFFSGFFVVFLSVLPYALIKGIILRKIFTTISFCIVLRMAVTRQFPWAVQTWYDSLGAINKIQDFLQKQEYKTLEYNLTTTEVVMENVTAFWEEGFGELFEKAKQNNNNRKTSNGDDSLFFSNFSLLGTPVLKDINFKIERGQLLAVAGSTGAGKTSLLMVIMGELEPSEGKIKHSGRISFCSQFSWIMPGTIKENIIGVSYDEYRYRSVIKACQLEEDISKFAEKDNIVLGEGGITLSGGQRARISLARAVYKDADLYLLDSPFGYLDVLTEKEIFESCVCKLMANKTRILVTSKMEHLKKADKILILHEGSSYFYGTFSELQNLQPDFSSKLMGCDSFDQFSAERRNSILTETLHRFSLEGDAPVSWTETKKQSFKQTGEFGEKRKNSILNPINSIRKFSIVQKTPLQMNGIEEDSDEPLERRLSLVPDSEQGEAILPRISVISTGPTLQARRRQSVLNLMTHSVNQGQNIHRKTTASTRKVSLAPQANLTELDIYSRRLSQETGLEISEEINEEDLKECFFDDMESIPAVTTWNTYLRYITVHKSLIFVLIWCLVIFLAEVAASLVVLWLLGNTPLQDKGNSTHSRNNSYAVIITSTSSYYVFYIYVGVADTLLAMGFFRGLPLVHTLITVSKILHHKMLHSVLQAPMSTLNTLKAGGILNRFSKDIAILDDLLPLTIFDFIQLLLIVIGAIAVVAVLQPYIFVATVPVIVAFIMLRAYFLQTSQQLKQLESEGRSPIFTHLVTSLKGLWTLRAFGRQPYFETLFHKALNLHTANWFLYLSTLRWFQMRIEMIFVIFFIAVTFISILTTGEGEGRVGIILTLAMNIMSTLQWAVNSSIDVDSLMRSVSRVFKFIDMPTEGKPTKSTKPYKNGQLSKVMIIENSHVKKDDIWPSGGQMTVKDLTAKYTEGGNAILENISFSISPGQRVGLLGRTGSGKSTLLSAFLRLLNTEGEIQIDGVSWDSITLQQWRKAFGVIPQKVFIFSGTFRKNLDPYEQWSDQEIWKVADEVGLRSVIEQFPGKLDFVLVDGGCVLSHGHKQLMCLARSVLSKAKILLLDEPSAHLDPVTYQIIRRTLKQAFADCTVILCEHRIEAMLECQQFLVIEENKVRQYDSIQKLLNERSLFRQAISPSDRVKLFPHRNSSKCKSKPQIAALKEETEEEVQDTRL
Test: HBE assay: Ussing chamber assay of CFTR-mediated short-circuit currents
Type: cell-based
Conditions: for pEC50: read-out: HBE EC50
Procedure, shortened: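 CFTR-mediated Isc (μA/cm²) equals the peak response to apical 20 μM forskolin minus the residual after a 20 μM each BPO/GlyH-101/CFTR inhibitor 172 cocktail, recorded in Ussing chambers at Vhold 0 mV, 37 °C, pH 7.4, with 30 μM apical amiloride. Cells were F508del/MF HBE cultures preincubated 18-24 h with corrector (concentration range or 10 μM) plus 1 μM ivacaftor in 20% human serum.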

[1] = HBE assay, read-out: HBE Max activity (%)
[2] = Table 12, read-out: HBE Max Activity (%)
[3] = Table 10, read-out: HBE Max activity (%)
[4] = Table 11, read-out: HBE Max Activity (%)
[5] = Table 12, at 10 μM, read-out: HBE Activity at 10 μM (%)
[6] = Table 13, read-out: HBE Max Activity (%)
[7] = Table 11, at 10 μM, read-out: HBE Activity at 10 μM (%)
[8] = Table 13, at 10 μM, read-out: HBE Activity at 10 μM (%)

pEC50 (HBE assay): > 6.00
Emax [1]: > 60%
Structure (SMILES): Cc1cccc(C)c1-c1cc2nc(n1)NS(=O)(=O)c1cccc(c1)C(=O)N(Cc1ncc(O[C@@H](C)C(C)C)cn1)[C@H](CC(C)(C)C)CO2 [Compound 1301, (11R)-6-(2,6-Dimethylphenyl)-12-[[5-[(1S)-1,2-dimethylpropoxy]pyrimidin-2-yl]methyl]-11-(2,2-dimethylpropyl)-2,2-dioxo-9-oxa-2λ^6-thia-3,5,12,19-tetrazatricyclo[12.3.1.14,8]nonadeca-1(18),4(19),5,7,14,16-hexaen-13-one]

pEC50 (Table 12): > 6.00
Emax [2]: 30 to 60%
Structure (SMILES): Cc1cccc(C)c1-c1cc2nc(n1)NS(=O)(=O)c1cccc(c1)C(=O)N(Cc1cccc(N3CC(C)(C)CC3(C)C)n1)[C@H](CC(C)(C)C)CO2 [Compound 597]

Emax [3]: > 60%
Structure (SMILES): Cc1cccc(C)c1-c1cc2nc(n1)NS(=O)(=O)c1cccc(c1)C(=O)N(Cc1ccc(-c3c(C)noc3C)cc1)[C@H](CC(C)(C)C)CO2 [Compound 292]

pEC50 (Table 11): > 6.00
Emax [4]: > 60%
Structure (SMILES): Cc1cccc(C)c1-c1cc2nc(n1)NS(=O)(=O)c1cccc(c1)C(=O)N(CC1CN(CC(C)(C)C)CCO1)[C@H](CC(C)(C)C)CO2 (stereo partly drawn) [Compound 712]

pEC50 (Table 12): 5.52 to 6.00
Emax [2]: > 60%
Structure (SMILES): Cc1cccc(C)c1-c1cc2nc(n1)NS(=O)(=O)c1cccc(c1)C(=O)N(Cc1ncc(OC(C)C)cn1)[C@H](CC(C)C)CO2 [Compound 239]

pEC50 (Table 11): > 6.00
Emax [4]: > 60%
Structure (SMILES): Cc1cccc(C)c1-c1cc2nc(n1)NS(=O)(=O)c1cccc(c1)C(=O)N(Cc1ncc(C(C)(C)C)cn1)[C@H](CC(C)(C)C)CO2 [Compound 815]

activation at 10 µM [5]: < 30%
Structure (SMILES): COc1cccc(C)c1-c1cc2nc(n1)NS(=O)(=O)c1cccc(c1)C(=O)N(Cc1cccc(N3CCCC3C)n1)[C@H](CC(C)(C)C)CO2 (stereo partly drawn) [Compound 578]

activation at 10 µM (Table 10, at 10 μM, read-out: HBE activity at 10 (μM) (%)): > 60%
Structure (SMILES): COc1ccc2nc3c(cc2c1)CN1C(O3)c2cccc(c2)S(=O)(=O)Nc2nc(cc(-c3c(C)cccc3C)n2)OC[C@H]1CC(C)(C)C (stereo partly drawn) [Compound 754]

pEC50 (Table 13): > 6.00
Emax [6]: > 60%
Structure (SMILES): Cc1cccc(C)c1-c1cc2nc(n1)NS(=O)(=O)c1cccc(c1)C(=O)N(Cc1ncc(OC(C)C)cc1Cl)[C@H](CC(C)(C)C)CO2 [Compound 691]

activation at 10 µM [5]: > 600%
Structure (SMILES): Cc1cccc(C(C)C)c1-c1cc2nc(n1)NS(=O)(=O)c1cccc(c1)C(=O)N(Cc1cnc(C3CCOCC3)cn1)[C@H](CC(C)C)CO2 [Compound 242]

activation at 10 µM (HBE assay, 10 μM, read-out: HBE Activity at 10 μM (%)): > 60%
pEC50 (HBE assay): > 6.00
Emax [1]: > 60%
Structure (SMILES): Cc1cccc(C)c1-c1cc2nc(n1)NS(=O)(=O)c1cccc(c1)C(=O)N(Cc1ncc(N3CC(C)(F)C3)cn1)[C@H](CC(C)(C)C)CO2 [Compound 1503]

activation at 10 µM [7]: > 60%
Structure (SMILES): Cc1cccc(C)c1-c1cc2nc(n1)NS(=O)(=O)c1cccc(c1)C(=O)N(CC1CCOC1)[C@H](CC(C)(C)C)CO2 (stereo partly drawn) [Compound 901]

pEC50 (Table 12): > 6.00
Emax [2]: > 60%
Structure (SMILES): Cc1cccc(C)c1-c1cc2nc(n1)NS(=O)(=O)c1cccc(c1)C(=O)N(Cc1ncc(N3CC4(CCC4)C3)cn1)[C@H](CC(C)(C)C)CO2 [Compound 155, (11R)-12-[[5-(2-Azaspiro[3.3]heptan-2-yl)pyrimidin-2-yl]methyl]-6-(2,6-dimethylphenyl)-11-(2,2-dimethylpropyl)-2,2-dioxo-9-oxa-2λ^6-thia-3,5,12,19-tetrazatricyclo[12.3.1.14,8]nonadeca-1(18),4(19),5,7,14,16-hexaen-13-one]

Emax [3]: > 60%
Structure (SMILES): Cc1cccc(C)c1-c1cc2nc(n1)NS(=O)(=O)c1cccc(c1)C(=O)N(Cc1ccc(-c3cnoc3)cn1)[C@H](CC(C)(C)C)CO2 [Compound 291]

pEC50 (Table 12): > 6.00
Emax [2]: > 60%
Structure (SMILES): Cc1cccc(C)c1-c1cc2nc(n1)NS(=O)(=O)c1cccc(c1)C(=O)N(Cc1coc(C(C)C)n1)[C@H](CC(C)(C)C)CO2 [Compound 703]

pEC50 (Table 10): > 6.00
Structure (SMILES): Cc1cccc(C)c1-c1cc2nc(n1)NS(=O)(=O)c1cccc(c1)C(=O)N(CC1CCC(N3C[C@@H](C)O[C@@H](C)C3)CC1)[C@H](CC(C)(C)C)CO2 (stereo partly drawn) [Compound 914]

pEC50 (Table 13): > 6.00
Emax [6]: > 60%
Structure (SMILES): Cc1cccc(C)c1-c1cc2nc(n1)NS(=O)(=O)c1cccc(c1)C(=O)N(Cc1ccc(C3CC3)cn1)[C@H](CC(C)(C)C)CO2 [Compound 252]

pEC50 (Table 11): 5.52 to 6.00
Emax [4]: > 60%
Structure (SMILES): Cc1cccc(C)c1-c1cc2nc(n1)NS(=O)(=O)c1cccc(c1)C(=O)N(Cc1ccc(N3CCC(C)(C)C3)cn1)[C@H](CC(C)(C)C)CO2 [Compound 609]

activation at 10 µM [8]: > 600%
Structure (SMILES): Cc1cccc(C)c1-c1cc2nc(n1)NS(=O)(=O)c1cccc(c1)C(=O)N(Cc1nc(C3CCC3)no1)[C@H](CC(C)(C)C)CO2 [Compound 1130]

activation at 10 µM [8]: > 600%
pEC50 (Table 13): > 6.00
Emax [6]: > 60%
Structure (SMILES): Cc1cccc(C)c1-c1cc2nc(n1)NS(=O)(=O)c1cccc(c1)C(=O)N(Cc1cccc(N3CCC34CCOCC4)n1)[C@H](CC(C)(C)C)CO2 [Compound 536]

pEC50 (HBE assay): > 6.00
Emax [1]: > 60%
Structure (SMILES): Cc1cccc(C)c1-c1cc2nc(n1)NS(=O)(=O)c1cccc(c1)C(=O)N(Cc1cncc(N3CCCC3C(C)C)n1)[C@H](CC(C)(C)C)CO2 (stereo partly drawn) [Compound 1383]

pEC50 (Table 10): > 6.00
Emax [3]: > 60%
Structure (SMILES): Cc1cccc(C)c1-c1cc2nc(n1)NS(=O)(=O)c1cccc(c1)C(=O)N(Cc1nccc3ccccc13)[C@H](CC(C)(C)C)CO2 [Compound 767]

pEC50 (Table 12): > 6.00
Emax [2]: > 60%
Structure (SMILES): COC[C@@H]1CCCN1c1cnc(CN2C(=O)c3cccc(c3)S(=O)(=O)Nc3nc(cc(-c4c(C)cccc4C)n3)OC[C@H]2CC(C)(C)C)nc1 [Compound 571]

activation at 10 µM [7]: > 60%
Structure (SMILES): Cc1cccc(C)c1-c1cc2nc(n1)NS(=O)(=O)c1cccc(c1)C(=O)N(Cc1cc3c(cn1)OCCO3)[C@H](CC(C)(C)C)CO2 [Compound 758]

pEC50 (Table 11): > 6.00
Emax [4]: > 60%
Structure (SMILES): Cc1cccc(C)c1-c1cc2nc(n1)NS(=O)(=O)c1cccc(c1)C(=O)N(Cc1cnc(C(C)C)cn1)[C@H](CC(C)(C)C)CO2 [Compound 893]

pEC50 (Table 10): > 6.00
Emax [3]: > 60%
Structure (SMILES): Cc1cccc(C)c1-c1cc2nc(n1)NS(=O)(=O)c1cccc(c1)C(=O)N(CC1CCN(c3ncccn3)CC1)[C@H](CC(C)(C)C)CO2 [Compound 109, (11R)-6-(2,6-Dimethylphenyl)-11-(2,2-dimethylpropyl)-2,2-dioxo-12-[(1-pyrimidin-2-yl-4-piperidyl)methyl]-9-oxa-2λ^6-thia-3,5,12,19-tetrazatricyclo[12.3.1.14,8]nonadeca-1(18),4(19),5,7,14,16-hexaen-13-one]

pEC50 (HBE assay): > 6.00
Emax [1]: > 60%
Structure (SMILES): CCOc1cnc(CN2C(=O)c3cccc(c3)S(=O)(=O)Nc3nc(cc(-c4c(C)cccc4C)n3)OC[C@H]2CC2CC2)nc1 [Compound 1482]

pEC50 (Table 11): > 6.00
Emax [4]: > 60%
Structure (SMILES): COCCN(C)c1cccc(CCN2C(=O)c3cccc(c3)S(=O)(=O)Nc3nc(cc(-c4c(C)cccc4C)n3)OC[C@H]2CC(C)(C)C)n1 [Compound 464]

pEC50 (Table 10): > 6.00
Emax [3]: > 60%
Structure (SMILES): Cc1cccc(C)c1-c1cc2nc(n1)NS(=O)(=O)c1cccc(c1)C(=O)N(Cc1cccc(N3CCCCC3)n1)[C@H](CC(C)(C)C)CO2 [Compound 489]

activation at 10 µM [8]: > 600%
Structure (SMILES): Cc1cccc(C)c1-c1cc2nc(n1)NS(=O)(=O)c1cccc(c1)C(=O)N(CC(=O)NC1CCCCC1(C)C)[C@H](CC(C)(C)C)CO2 (stereo partly drawn) [Compound 178]

pEC50 (Table 10): > 6.00
Emax [3]: > 60%
Structure (SMILES): Cc1cccc(C)c1-c1cc2nc(n1)NS(=O)(=O)c1cccc(c1)C(=O)N(Cc1ncccc1N(C)C)[C@H](CC(C)(C)C)CO2 [Compound 379]
